Reference: patent US8841330B2, “Omega-carboxyaryl substituted diphenyl ureas as raf kinase inhibitors” (Bayer Healthcare LLC, priority 2000, dated 2014)

SMILES	melting point
COC(=O)c1ccc(Oc2ccc(NC(=O)Nc3ccc(Cl)c(C(F)(F)F)c3)cc2)cn1 [Entry 55, N-(4-chloro-3-(trifluoromethyl)phenyl)-N′-(4-(2-(methoxycarbonyl)-5-pyridyloxy)phenyl)urea]	228 to 230 °C
CNC(=O)c1cc(Oc2ccc(NC(=O)Nc3ccc(Oc4ccnc(C(=O)NC)c4)cc3)cc2)ccn1 [Entry 103, bis(4-(2-(N-methylcarbamoyl)-4-pyridyloxy)phenyl)urea]	125 to 130 °C
